Here are results for 2 molecules from ChEMBL document CHEMBL1250488, “Structural and functional basis of resistance to neuraminidase inhibitors of influenza B viruses” (J Med Chem, 2010).

Assay [1] in a line: Inhibition of Influenza B virus (B/Perth/211/2001) recombinant wild type neuraminidase expressed in Sf21 insect cells after 60 mins by MUNANA based assay.
Assay [2] in a line: Inhibition of Influenza B virus (B/Perth/211/2001) wild type recombinant neuraminidase expressed in Sf21 insect cells preincubated for 30 mins measured after 60 mins by MUNANA based assay.
Assay [3] is described as follows: Inhibition of Influenza B virus B/Gifu/11/2005 wild type neuraminidase expressed in Sf21 insect cells after 60 mins by MUNANA based assay.
The nature of assay [4]: Inhibition of Influenza B virus B/Gifu/11/2005 wild type neuraminidase expressed in Sf21 insect cells preincubated for 30 mins measured after 60 mins by MUNANA based assay.

With `O=C(O)C1(F)O[C@H]([C@H](O)[C@H](O)CO)[C@H](O)[C@@H](O)C1F` (some centres not stated), the IC50 in assay [1] came out at 37700 nM.

On to `CCC(CC)[C@H](NC(C)=O)[C@@H]1[C@H](O)[C@@H](C(=O)O)C[C@H]1NC(=N)N` [PERAMIVIR ANHYDROUS], for which the Ki turned out to be 1.2 nM in assay [1], 0.6 nM in assay [2], 0.7 nM in assay [3] and 0.3 nM in assay [4]. Besides, the values for the IC50 in assay [2] and in assay [4] were 2.8 nM and 2.1 nM, respectively.
